Assay [1] relates to T47D cells. As to the kind of experiment: Cellular growth inhibition assay for T47D cells (CellTiter-Glo, 72 hours). The format is cell-based, human. As to conditions: 72 hours treatment. On the procedure: T47D cells were purchased from American Type Cell Culture (ATCC Cat #HTB-133) and then seeded on poly-D-lysine coated, black clear-bottom 384-well plates at 3000/well in 25 μL Dulbecco's Modified Eagle Medium (DMEM) supplemented with 10% w/w Fetal bovine serum (FBS), 0.2 units/mL recombinant human insulin (Gibco Cat #12585014), and 1% w/w Pen-Strep. Pen-Strep is a commercially available mixture of penicillin G and streptomycin, which is used in mammalian cell culture media to prevent bacterial contamination. Dulbecco's Modified Eagle Medium (DMEM) supplemented with 10% w/w fetal bovine serum (FBS), 0.2 units/mL recombinant human insulin, and 1% w/w Pen-Strep is herein referred to as Treatment Medium. Following seeding of cells in the plates, the plates were spun at 300×g for 30 seconds, then equilibrated to room temperature for 30 minutes, and then deposited in a humidified tissue culture incubator maintained at 37° C. with 5% CO2.
At 24 hours after seeding of the cells, dilutions of test compound were prepared in DMSO and dissolved in Treatment Medium, to achieve a final DMSO concentration of 0.5% w/w, thereby providing the Test Compound Solution. A 25 μL aliquot of the Test Compound Solution was added to cells in the well plates. An equal volume of a solution containing DMSO and Treatment Medium was used as a negative control. Following treatment of cells with Test Compound Solution or said equal volume of a solution containing DMSO and Treatment Medium, the plates were spun at 300×g for 30 seconds, and then left in an incubator for 72 hours.
At the end of the treatment duration, cell viability was quantified with CellTiter-Glo 2.0 reagent (Promega Cat #G9243). For this purpose, plates were equilibrated to room temperature for 30 minutes, and then 25 μL of CellTiter-Glo 2.0 reagent was added to cells in the plate wells. Plates were then agitated on a shaker for two minutes at 500 rpm and subsequently incubated at room temperature for 10 minutes. Following incubation, the plates were spun at 3000×g for 30 seconds, then sealed with an optical adhesive cover, and luminescence readings were measured with an EnVision Plate Reader (Perkin Elmer).
Data was normalized using zero luminescence for baseline. A four-parameter non-linear regression curve fit was applied to dose-response data in GraphPad Prism data analysis software to determine the half-maximal growth inhibitory concentration (GI50) for each test compound.

The test system of assay [2] is VCaP cells. As to the kind of experiment: Cellular growth inhibition assay for VCaP cells (CellTiter-Glo, 72 hours). The assay is classed as cell-based, human. The method, boiled down: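 Luminescent viability signal after 72 h of compound exposure gave GI50 values by four-parameter nonlinear regression. Compounds were added in 0.5% DMSO to cells plated 24 h earlier at 5000/well in DMEM containing 10% FBS.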

In assay [3] the test system is T-Rex 293 cell line SC3 cells having increased expression of androgen receptor protein due to exposure to doxycycline. As to the kind of experiment: Cellular growth inhibition assay, T-Rex 293 SC3 cells with doxycycline (CellTiter-Glo, 72 hours). The format is cell-based. As to conditions: T-Rex 293 SC3 cells with increased androgen receptor expression due to doxycycline (10 ng/mL). The method, boiled down: (§1)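 Doxycycline (10 ng/mL) was either included or omitted to toggle wild-type androgen receptor expression in SC3 cells, a T-Rex 293 clone, grown in stripped-serum, phenol red-free medium. After 72 hours with compound, viable cells were quantified by CellTiter-Glo 2.0.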
Background: Cellular ATP, detected with luciferase, serves as a proxy for viable cell number.

Assay [4] concerns T-Rex 293 cell line SC3 cells lacking increased expression of androgen receptor protein. As to the kind of experiment: Cellular growth inhibition assay, T-Rex 293 SC3 cells without doxycycline (CellTiter-Glo, 72 hours). The assay is classed as cell-based. As to conditions: T-Rex 293 cell line SC3 cells not exposed to doxycycline (lacking increased androgen receptor expression). The gist of the method:
as §1

Like-named read-outs stand apart in the source and are kept apart here.

In general, GI50 refers to the concentration that inhibits growth by half. With `Cc1sc2c(c1C)C(c1ccc(C[C@H]3CCC4CN(c5ccc(C(=O)N[C@H]6CC[C@H](Oc7ccc(C#N)c(Cl)c7)CC6)nn5)CCN4C3)cc1)=N[C@@H](Cc1ncco1)c1nnc(C)n1-2` (stereo partly shown) [I-258], the GI50 in assay [1] (Homo sapiens, T47D, 72 h) was less than 500 nM; in assay [2] (Homo sapiens, VCaP, 72 h) it was less than 500 nM.

As to `Cc1sc2c(c1C)C(c1ccc(C[C@@H]3CCC4CN(c5ccc(C(=O)N[C@H]6CC[C@H](Oc7ccc(C#N)c(Cl)c7)CC6)nn5)CCN4C3)cc1)=N[C@@H](Cc1ncco1)c1nnc(C)n1-2` (stereo partly shown) [I-259], the 50% growth inhibitory concentration (GI50) was less than 500 nM in assay [1] (Homo sapiens, T47D, 72 h) and less than 500 nM in assay [2] (Homo sapiens, VCaP, 72 h).

In the case of `Cc1sc2c(c1C)C(c1ccc(C[C@@H]3CC[C@]4(C3)CN(c3ccc(C(=O)N[C@H]5CC[C@H](Oc6ccc(C#N)c(Cl)c6)CC5)nn3)CCO4)cc1)=N[C@@H](Cc1ncco1)c1nnc(C)n1-2` [I-264], the GI50 is more than 3000 nM in assay [1] (Homo sapiens, T47D, 72 h) and 1500 to 3000 nM in assay [2] (Homo sapiens, VCaP, 72 h).

`Cc1sc2c(c1C)C(c1ccc(C[C@@H]3CC[C@@]4(C3)CN(c3ccc(C(=O)N[C@H]5CC[C@H](Oc6ccc(C#N)c(Cl)c6)CC5)nn3)CCO4)cc1)=N[C@@H](Cc1ncco1)c1nnc(C)n1-2` [I-265]: the GI50 in assay [1] was more than 3000 nM; in assay [2], 1500 to 3000 nM.

As to `Cc1sc2c(c1C)C(c1ccc(NCC(=O)N3CCC(c4ccc(C(=O)N[C@H]5CC[C@H](Oc6ccc(C#N)c(Cl)c6)CC5)nn4)CC3)cc1)=N[C@@H](Cc1ncco1)c1nnc(C)n1-2` [I-268], the GI50 in assay [1] (Homo sapiens, T47D, 72 h) was 500 to 1500 nM; in assay [2] (Homo sapiens, VCaP, 72 h) it was more than 3000 nM.

In the case of `Cc1sc2c(c1C)C(c1ccc(C(=O)N3CC[C@@]4(CCCN(c5ccc(C(=O)N[C@H]6CC[C@H](Oc7ccc(C#N)c(Cl)c7)CC6)nn5)C4)C3)cc1)=N[C@@H](Cc1ncco1)c1nnc(C)n1-2` [I-269], the GI50 in assay [1] (Homo sapiens, T47D, 72 h) was 1500 to 3000 nM; in assay [2] (Homo sapiens, VCaP, 72 h), more than 3000 nM.

For `Cc1sc2c(c1C)C(c1ccc(C(=O)N3CC[C@]4(CCCN(c5ccc(C(=O)N[C@H]6CC[C@H](Oc7ccc(C#N)c(Cl)c7)CC6)nn5)C4)C3)cc1)=N[C@@H](Cc1ncco1)c1nnc(C)n1-2` [I-270], the GI50 was more than 3000 nM in assay [1] (Homo sapiens, T47D, 72 h) and 500 to 1500 nM in assay [2] (Homo sapiens, VCaP, 72 h).

Take `Cc1sc2c(c1C)C(c1ccc(C(=O)N3CC[C@@]4(CCCN(c5ccc(C(=O)N[C@H]6CC[C@H](Oc7ccc(C#N)c(Cl)c7)CC6)nn5)C4)C3)cc1)=N[C@H](Cc1ncco1)c1nnc(C)n1-2` [I-271]: the GI50 in assay [1] (Homo sapiens, T47D, 72 h) is more than 3000 nM; in assay [2] (Homo sapiens, VCaP, 72 h), more than 3000 nM.

For the compound `Cc1sc2c(c1C)C(c1ccc(CN(C)C(=O)CCc3ccc(C(=O)N[C@H]4CC[C@H](Oc5ccc(C#N)c(Cl)c5)CC4)nn3)cc1)=N[C@@H](Cc1ncco1)c1nnc(C)n1-2` [I-273], the GI50 was 500 to 1500 nM in assay [1] (Homo sapiens, T47D, 72 h) and less than 500 nM in assay [2] (Homo sapiens, VCaP, 72 h).

For `Cc1sc2c(c1C)C(c1ccc(C(=O)N3CCC[C@@H](Cc4ccc(C(=O)N[C@H]5CC[C@H](Oc6ccc(C#N)c(Cl)c6)CC5)nn4)C3)cc1)=N[C@@H](Cc1ncco1)c1nnc(C)n1-2` [I-274], the GI50 is more than 3000 nM in assay [1] (Homo sapiens, T47D, 72 h) and more than 3000 nM in assay [2] (Homo sapiens, VCaP, 72 h).

Turning to `Cc1sc2c(c1C)C(c1ccc(C#CC3CC4(C3)CN(c3ccc(C(=O)N[C@H]5CC[C@H](Oc6ccc(C#N)c(Cl)c6)CC5)nn3)C4)cn1)=N[C@@H](Cc1ncco1)c1nnc(C)n1-2` [I-280], the GI50 was more than 3000 nM in assay [1] (Homo sapiens, T47D, 72 h) and less than 500 nM in assay [2] (Homo sapiens, VCaP, 72 h).

`Cc1sc2c(c1C)C(c1ccc(OC[C@H]3C[C@]4(CCCN(c5ccc(C(=O)N[C@H]6CC[C@H](Oc7ccc(C#N)c(Cl)c7)CC6)nn5)C4)C3)cc1)=N[C@@H](C)c1nnc(C)n1-2` [I-309]: the GI50 in assay [1] (Homo sapiens, T47D, 72 h) was 500 to 1500 nM; in assay [3] (72 h), less than 500 nM; in assay [4] (72 h), more than 3000 nM.

For the compound `Cc1sc2c(c1C)C(c1ccc(NCC3CC4(C3)CN(c3ncc(C(=O)N[C@H]5CC[C@H](Oc6ccc(C#N)c(Cl)c6)CC5)cn3)C4)cc1)=NC(Cc1ncco1)c1nnc(C)n1-2` (stereo partly shown) [I-808], the 50% growth inhibitory concentration (GI50) is less than 500 nM in assay [3] (72 h); 500 to 1500 nM in assay [2] (Homo sapiens, VCaP, 72 h); more than 3000 nM in assay [4] (72 h).

With `Cc1sc2c(c1C)C(c1ccc(C3CCC4(CCN(c5ccc(C(=O)N[C@H]6CC[C@H](Oc7ccc(C#N)c(Cl)c7)CC6)nn5)C4)C3)cc1)=N[C@@H](C)c1nnc(C)n1-2` (stereo partly drawn) [I-821, N-[4-(3-chloro-4-cyano-phenoxy)cyclohexyl]-6-[8-[4-[(9S)-4,5,9,13-tetramethyl-3-thia-1,8,11,12-tetrazatricyclo[8.3.0.02,6]trideca-2(6),4,7,10,12-pentaen-7-yl]phenyl]-2-azaspiro[4.4]nonan-2-yl]pyridazine-3-carboxamide], the GI50 in assay [3] (72 h) was less than 500 nM; in assay [2] (Homo sapiens, VCaP, 72 h) it was less than 500 nM; in assay [4] (72 h) it was less than 500 nM.

As for `Cc1sc2c(c1C)C(c1ccc(C3CCC4(CCN(c5ccc(C(=O)N[C@H]6CC[C@H](Oc7ccc(C#N)c(Cl)c7)CC6)nn5)C4)C3)cc1)=N[C@@H](C)c1nnc(C)n1-2` (stereo partly drawn) [I-822, N-[4-(3-chloro-4-cyano-phenoxy)cyclohexyl]-6-[8-[4-[(9S)-4,5,9,13-tetramethyl-3-thia-1,8,11,12-tetrazatricyclo[8.3.0.02,6]trideca-2(6),4,7,10,12-pentaen-7-yl]phenyl]-2-azaspiro[4.4]nonan-2-yl]pyridazine-3-carboxamide], the GI50 in assay [3], in assay [2] and in assay [4] was less than 500 nM throughout.

For the compound `Cc1sc2c(c1C)C(c1ccc(C3CCC4(CCN(c5ccc(C(=O)N[C@H]6CC[C@H](Oc7ccc(C#N)c(Cl)c7)CC6)nn5)C4)C3)cc1)=N[C@@H](C)c1nnc(C)n1-2` (stereo partly drawn) [I-823, N-[4-(3-chloro-4-cyano-phenoxy)cyclohexyl]-6-[8-[4-[(9S)-4,5,9,13-tetramethyl-3-thia-1,8,11,12-tetrazatricyclo[8.3.0.02,6]trideca-2(6),4,7,10,12-pentaen-7-yl]phenyl]-2-azaspiro[4.4]nonan-2-yl]pyridazine-3-carboxamide], the GI50 in assay [3], in assay [2] and in assay [4] was less than 500 nM in each case.

In the case of `Cc1sc2c(c1C)C(c1ccc(C3CCC4(CC3)CCN(c3ccc(C(=O)N[C@H]5CC[C@H](Oc6ccc(C#N)c(Cl)c6)CC5)nn3)C4)cc1)=N[C@@H](Cc1ncco1)c1nnc(C)n1-2` (stereo partly drawn) [I-824, N-((1r,4r)-4-(3-chloro-4-cyanophenoxy)cyclohexyl)-6-(8-(4-((S)-2,3,9-trimethyl-6-(oxazol-2-ylmethyl)-6H-thieno[3,2-f][1,2,4]triazolo[4,3-a][1,4]diazepin-4-yl)phenyl)-2-azaspiro[4.5]decan-2-yl)pyridazine-3-carboxamide], the GI50 in assay [3], in assay [2] and in assay [4] was less than 500 nM throughout.

Turning to `Cc1sc2c(c1C)C(c1ccc(N3C[C@@H]4CN(c5ccc(C(=O)N[C@H]6CC[C@@H](Oc7ccc(C#N)c(Cl)c7)CC6)nn5)C[C@@H]4C3)cc1)=N[C@@H](Cc1ncco1)c1nnc(C)n1-2` [I-825, 6-[(3aR,6aS)-2-[4-[(9S)-4,5,13-trimethyl-9-(oxazol-2-ylmethyl)-3-thia-1,8,11,12-tetrazatricyclo[8.3.0.02,6]trideca-2(6),4,7,10,12-pentaen-7-yl]phenyl]-1,3,3a,4,6,6a-hexahydropyrrolo[3,4-c]pyrrol-5-yl]-N-[4-(3-chloro-4-cyano-phenoxy)cyclohexyl]pyridazine-3-carboxamide], the GI50 is less than 500 nM in assay [3] (72 h); less than 500 nM in assay [2] (Homo sapiens, VCaP, 72 h); less than 500 nM in assay [4] (72 h).

As to `Cc1sc2c(c1C)C(c1ccc(N3C[C@@]4(C)CN(c5ccc(C(=O)N[C@H]6CC[C@H](Oc7ccc(C#N)c(Cl)c7)CC6)nn5)C[C@@]4(C)C3)cc1)=N[C@@H](Cc1ncco1)c1nnc(C)n1-2` [I-826, 6-[(3aS,6aR)-3a,6a-dimethyl-2-[4-[(9S)-4,5,13-trimethyl-9-(oxazol-2-ylmethyl)-3-thia-1,8,11,12-tetrazatricyclo[8.3.0.02,6]trideca-2(6),4,7,10,12-pentaen-7-yl]phenyl]-1,3,4,6-tetrahydropyrrolo[3,4-c]pyrrol-5-yl]-N-[4-(3-chloro-4-cyano-phenoxy)cyclohexyl]pyridazine-3-carboxamide], the GI50 in assay [3] (72 h) was less than 500 nM; in assay [2] (Homo sapiens, VCaP, 72 h), less than 500 nM; in assay [4] (72 h), less than 500 nM.

Source of the values: patent publication US20260109707A1, “HETEROBIFUNCTIONAL COMPOUNDS AND METHODS OF TREATING DISEASE” (Halda Therapeutics OpCo. Inc., priority 2022, published 2026).
